Converted amounts (≈) assume the structure as drawn.
How the values were obtained:
[1] = system: VTT-E-193585 strain; experiment: Antibiotic susceptibility (MIC), CLSI M07 broth microdilution / agar dilution; format: cell-based, Xanthobacter sp.; conditions: comparison of MIC values of Table 5
Procedure: (§1) Escherichia coli ATCC 25922 was used as quality control strain and it was incubated in aerobic conditions, at +35±2° C. for 18±2 hours.

[2] = system: Escherichia coli ATCC 25922; experiment: Antibiotic susceptibility (MIC), quality control strain; format: cell-based; conditions: E. coli ATCC 25922, 18 h ± 2 h, aerobic, +35±2° C.; for MIC: Escherichia coli, ATCC25922, read-out: Minimum Inhibitory Concentration (MIC)
Procedure: as §1

[3] = system: VTT-E-193585 strain; experiment: Antibiotic susceptibility (MIC), CLSI M07 broth microdilution / agar dilution; format: cell-based, Xanthobacter sp.; conditions: VTT-E-193585, 48 h ± 1 h, aerobic, +35±2° C., cation-adjusted Mueller Hinton Broth, fosfomycin by agar dilution; for MIC: read-out: Minimum Inhibitory Concentration (MIC)

**Q.** With `CC1(C)S[C@@H]2[C@H](NC(=O)[C@H](N)c3ccccc3)C(=O)N2[C@H]1C(=O)O` [Ampicillin, ampicillin] as the compound, how does the “MIC for VTT-E-193585 compared with E. coli ATCC 25922” value [1] read?
**A.** The value was “higher”.

**Q.** What about the MIC [2] of the same compound?
**A.** The MIC was 8 µg/mL (≈ 22.9 µM).

**Q.** And the MIC [3]?
**A.** Its MIC is 16 µg/mL (≈ 45.8 µM).

**Q.** For `C[C@@H]1O[C@@H]1P(=O)(O)O` [Fosfomycin, fosfomycin], which “MIC for VTT-E-193585 compared with E. coli ATCC 25922” value [1] is on record?
**A.** Its value is “higher”.

**Q.** And the MIC [2]?
**A.** The MIC was 0.5 µg/mL (≈ 3.62 µM).

**Q.** What about the MIC [3] of the same compound?
**A.** The MIC was 32 µg/mL (≈ 232 µM).

**Q.** With `NC[C@H]1O[C@H](O[C@H]2[C@H](O)[C@@H](O[C@H]3O[C@H](CO)[C@@H](O)[C@H](N)[C@H]3O)[C@H](N)C[C@@H]2N)[C@H](O)[C@@H](O)[C@@H]1O` [Kanamycin, kanamycin] as the compound, how does the MIC [2] read?
**A.** Its MIC is 4 µg/mL (≈ 8.26 µM).

**Q.** What about the MIC [3] of the same compound?
**A.** Its MIC is 2 µg/mL (≈ 4.13 µM).

**Q.** Which “MIC for VTT-E-193585 compared with E. coli ATCC 25922” value [1] does the source give for `[H]/N=C(/N)N[C@H]1[C@H](O)[C@@H](O)[C@H](O[C@@H]2O[C@@H](C)[C@](O)(C=O)[C@H]2O[C@@H]2O[C@@H](CO)[C@H](O)[C@@H](O)[C@@H]2NC)[C@@H](N/C(N)=N\[H])[C@@H]1O` [Streptomycin, streptomycin] here?
**A.** Its value is “lower or comparable”.

**Q.** And the MIC [2]?
**A.** The MIC was 4 µg/mL (≈ 6.88 µM).

**Q.** And the MIC [3]?
**A.** Its MIC is 0.5 µg/mL (≈ 0.86 µM).

**Q.** With `CN(C)[C@@H]1C(O)=C(C(N)=O)C(=O)[C@@]2(O)C(O)=C3C(=O)c4c(O)cccc4[C@@](C)(O)[C@H]3C[C@@H]12` [Tetracycline, tetracycline] as the compound, how does the MIC [2] read?
**A.** Its MIC is 1 µg/mL (≈ 2.25 µM).

**Q.** What about the MIC [3] of the same compound?
**A.** Its MIC is 0.25 µg/mL (≈ 0.563 µM).

**Q.** Which results are given for colistin?
**A.** MIC for VTT-E-193585 compared with E. coli ATCC 25922 [1]: higher; Minimum Inhibitory Concentration (MIC) [2]: 2 µg/mL; Minimum Inhibitory Concentration (MIC) [3]: 4 µg/mL

**Q.** Which “MIC for VTT-E-193585 compared with E. coli ATCC 25922” value [1] does the source give for gentamicin here?
**A.** Its value is “lower or comparable”.

**Q.** What about the “Minimum Inhibitory Concentration (MIC)” value [2] of the same compound?
**A.** The value was 0.5 µg/mL.

**Q.** What about the “Minimum Inhibitory Concentration (MIC)” value [3] of the same compound?
**A.** The value was 0.5 µg/mL.

Source: patent US12600940B2, “Strains and processes for single cell protein or biomass production” (priority 2019, dated 2026)
